Laboratory results: patent publication US20180346446A1, “IRE1 SMALL MOLECULE INHIBITORS” (QUENTIS THERAPEUTICS, INC., priority 2017, published 2018)
Counter-ions that a name gives are not always drawn.

Columns and labels:
[1] = biological target: T1, IRE1a (Homo sapiens, UniProt O75460); experiment: IRE1a Endoribonuclease Nanoluciferase Assay (XBP1 luciferase reporter in 293T cells); format: cell-based; conditions: 293T cells transfected with XBP1 luciferase reporter, ER stressors +/- inhibitors
How it was run: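 293T cells were transfected with a PGK-Luc2-P2A-XBP1u-nanoluciferase-PEST reporter and plated in 96-well format. A day later they were treated with ER stressors with or without inhibitors. Lysates were read for luminescence with OneGlo, then again after Stop and Glo.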

[2] = test system: 293T cells; experiment: Growth assay (cytotoxicity); format: cell-based; conditions: 2 day incubation
Description: A growth assay was performed to evaluate the compounds disclosed herein for cytotoxicity. Briefly, 5,000,000 293T cells were resuspended in 18 mL of cDMEM for a final concentration of 277,777 cells/mL. […] In a separate 96 well dilution plate, 199 uL cDMEM and 1 uL of DMSO or any one of the compounds disclosed herein (shown as Test Compound 1, 2, 3, 4, 5, or 6 below) were added to wells A4, A8, C4, C8, E4, E8, G4, and G8. 133.3 uL cDMEM was added to wells 1, 2, 3, 5, 6, and 7 in rows A, C, E and G of the dilution plate. Compounds were serially diluted leftwards in threefold dilutions (66.7 uL into 133.3 uL cDMEM). 20 uL of each dilution was transferred in duplicate (duplicates in vertical paired wells) to the cells plated in the 96-well plate shown in Table 5, to the total concentrations shown below. 200 uL cDMEM was added to media wells (wells G5-H8). The plate was then placed in a humidified chamber for a 2 day incubation, and then photographed (media was more yellow in wells with potent cell growth). Absorbance was then measured at about […] (lower for more acidic media) and about […] (higher for more acidic media).

[3] = biological target: T1, IRE1a; experiment: In vitro FRET assay (XBP1 RNA probe cleavage by IRE1a); format: biochemical; parameters: purchased SignalChem; conditions: 2 nM IRE1a protein
[4] = biological target: T2, hERG channel (Homo sapiens, UniProt Q12809); experiment: hERG potassium ion channel automated planar clamp (QPatch); format: cell-based; conditions: hERG channel expressed in a stable CHO cell line, read-out: hERG channel blockade Mean IC50
T2 construct: expressed in transfected cells
Description: Blockade of the cardiac ion channel coded by the hERG gene can lead to cardiac arrhythmia. […] To determine the viability of the compounds disclosed herein as pharmacological agents that would not affect the hERG channel blockade, a standard automated planar clamp method was employed to determine the IC50 for various test compounds on their inhibition of the channel. An electrophysiological assay was prepared to measure the electric current passing through the hERG channel expressed in a stable CHO cell line by applying the planar clamp method. This assay was performed using the automated QPatch platform (Sophion, Denmark) which allows fast and accurate electrophysiological characterization of the hERG ion channel and the determination of IC50 values for the test compounds, as shown in Table 9.

T2 sequence (Q12809 whole entry): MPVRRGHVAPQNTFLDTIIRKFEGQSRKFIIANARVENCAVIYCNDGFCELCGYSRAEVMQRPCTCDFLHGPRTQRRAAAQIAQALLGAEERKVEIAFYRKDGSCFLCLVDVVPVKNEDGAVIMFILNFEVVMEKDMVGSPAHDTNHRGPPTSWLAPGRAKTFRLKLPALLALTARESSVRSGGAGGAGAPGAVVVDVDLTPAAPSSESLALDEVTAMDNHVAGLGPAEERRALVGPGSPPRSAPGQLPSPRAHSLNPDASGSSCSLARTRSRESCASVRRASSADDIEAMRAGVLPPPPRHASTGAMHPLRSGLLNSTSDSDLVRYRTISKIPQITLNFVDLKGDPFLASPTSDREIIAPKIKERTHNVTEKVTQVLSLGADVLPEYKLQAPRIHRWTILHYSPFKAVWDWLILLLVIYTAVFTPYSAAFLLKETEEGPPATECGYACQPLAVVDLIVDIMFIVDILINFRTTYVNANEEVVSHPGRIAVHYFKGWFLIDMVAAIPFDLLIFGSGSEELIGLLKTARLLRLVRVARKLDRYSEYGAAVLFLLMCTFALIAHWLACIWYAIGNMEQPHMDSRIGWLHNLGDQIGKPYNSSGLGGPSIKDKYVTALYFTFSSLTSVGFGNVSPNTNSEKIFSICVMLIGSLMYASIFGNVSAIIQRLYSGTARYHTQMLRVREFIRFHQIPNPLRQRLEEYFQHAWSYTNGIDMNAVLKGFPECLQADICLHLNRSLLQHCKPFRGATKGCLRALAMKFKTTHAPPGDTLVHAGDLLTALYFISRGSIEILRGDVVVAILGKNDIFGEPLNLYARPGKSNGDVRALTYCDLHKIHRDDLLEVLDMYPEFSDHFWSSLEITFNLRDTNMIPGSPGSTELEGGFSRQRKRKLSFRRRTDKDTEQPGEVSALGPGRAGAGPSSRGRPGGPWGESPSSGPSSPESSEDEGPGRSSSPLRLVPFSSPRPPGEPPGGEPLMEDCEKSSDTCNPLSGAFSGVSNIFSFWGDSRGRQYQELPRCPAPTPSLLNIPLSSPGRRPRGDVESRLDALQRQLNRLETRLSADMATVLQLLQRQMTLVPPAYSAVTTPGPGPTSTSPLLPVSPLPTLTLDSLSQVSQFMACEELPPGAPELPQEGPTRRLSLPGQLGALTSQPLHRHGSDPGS
T1 sequence (O75460 19-977): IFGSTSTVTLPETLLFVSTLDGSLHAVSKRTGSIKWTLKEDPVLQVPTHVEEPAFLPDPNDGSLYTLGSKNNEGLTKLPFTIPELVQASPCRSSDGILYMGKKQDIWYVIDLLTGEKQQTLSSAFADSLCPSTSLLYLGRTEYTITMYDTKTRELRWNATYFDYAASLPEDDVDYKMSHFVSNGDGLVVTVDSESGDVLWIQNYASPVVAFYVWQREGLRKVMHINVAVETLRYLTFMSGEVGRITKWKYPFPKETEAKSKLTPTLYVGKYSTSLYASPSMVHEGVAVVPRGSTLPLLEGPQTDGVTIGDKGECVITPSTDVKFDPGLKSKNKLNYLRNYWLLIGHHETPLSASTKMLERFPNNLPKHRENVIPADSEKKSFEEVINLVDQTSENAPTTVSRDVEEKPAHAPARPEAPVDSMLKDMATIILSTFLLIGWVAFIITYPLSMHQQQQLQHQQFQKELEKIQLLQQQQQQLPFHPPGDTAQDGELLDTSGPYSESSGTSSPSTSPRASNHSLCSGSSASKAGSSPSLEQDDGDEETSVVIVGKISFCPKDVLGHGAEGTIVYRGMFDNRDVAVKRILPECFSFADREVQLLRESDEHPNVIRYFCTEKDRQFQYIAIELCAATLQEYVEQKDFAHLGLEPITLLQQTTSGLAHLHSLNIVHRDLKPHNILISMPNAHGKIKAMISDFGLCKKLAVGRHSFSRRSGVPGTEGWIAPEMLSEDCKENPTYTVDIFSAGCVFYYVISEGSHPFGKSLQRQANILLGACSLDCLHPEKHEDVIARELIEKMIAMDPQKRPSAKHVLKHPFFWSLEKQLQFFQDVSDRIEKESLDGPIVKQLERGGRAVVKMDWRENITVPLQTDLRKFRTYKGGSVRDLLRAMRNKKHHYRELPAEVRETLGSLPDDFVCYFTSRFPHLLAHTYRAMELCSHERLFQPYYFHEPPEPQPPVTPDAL

Structure (SMILES) | EC50 [1] | % Growth at 0.5556 uM [2] | % Growth at 1.667 uM [2] | % Growth at 5 uM [2] | IC50 [3] | IC50 [4] | % Growth at 0.185 uM [2]
CCc1cc(-c2ccc(NS(=O)(=O)c3ccccc3Cl)nc2OC)cc2cnc(N[C@H]3CC[C@H](N)CC3)nc12 [37; HCl ^] | ≤ 5 nM | D (D: >75% to ≤100%) | C (C: >50% to ≤75%) | B (B: >25% to ≤50%) | ≤ 5 nM | 10000 to 50000 nM | –
CCc1cc(-c2ccc(NS(=O)(=O)c3ccccc3Cl)cc2C)cc2cnc(N[C@H]3CC[C@H](N)CC3)nc12.O=CO [3; Formic Acid] | 5 to 50 nM | D (D: >75% to ≤100%) | C (C: >50% to ≤75%) | A (A: ≤25%) | ≤ 5 nM | 10000 to 50000 nM | D (D: >75% to ≤100%)
CCc1cc(-c2ccc(NS(=O)(=O)c3ccccc3Cl)c(F)c2)cc2cnc(N[C@H]3CC[C@H](N(C)C)CC3)nc12.O=CO [69; Formic Acid] | ≤ 5 nM | D (D: >75% to ≤100%) | C (C: >50% to ≤75%) | C (C: >50% to ≤75%) | ≤ 5 nM | 10000 to 50000 nM | –
CCc1cc(-c2ccc(NS(=O)(=O)c3ccccc3Cl)nc2C)cc2cnc(N[C@H]3CC[C@H](N)CC3)nc12.O=CO [16; Formic Acid] | ≤ 5 nM | D (D: >75% to ≤100%) | D (D: >75% to ≤100%) | B (B: >25% to ≤50%) | ≤ 5 nM | 10000 to 50000 nM | D (D: >75% to ≤100%)
CCc1cc(NS(=O)(=O)c2ccccc2Cl)ccc1-c1cc(CC)c2nc(N[C@H]3CC[C@H](N)CC3)ncc2c1.O=CO [34; Formic Acid] | 5 to 50 nM | D (D: >75% to ≤100%) | D (D: >75% to ≤100%) | A (A: ≤25%) | ≤ 5 nM | – | D (D: >75% to ≤100%)
CCc1cc(-c2ccc(NS(=O)(=O)c3ccccc3Cl)cc2OC)cc2cnc(N[C@H]3CC[C@H](N)CC3)nc12.O=CO [19; Formic Acid] | ≤ 5 nM | D (D: >75% to ≤100%) | C (C: >50% to ≤75%) | A (A: ≤25%) | ≤ 5 nM | – | D (D: >75% to ≤100%)
CCc1cc(-c2cnc(NS(=O)(=O)c3ccccc3Cl)c(F)c2)cc2cnc(N[C@H]3CC[C@H](N)CC3)nc12.O=CO [55; Formic Acid] | ≤ 5 nM | D (D: >75% to ≤100%) | D (D: >75% to ≤100%) | D (D: >75% to ≤100%) | ≤ 5 nM | – | D (D: >75% to ≤100%)
CCc1cc(-c2cnc(NS(=O)(=O)c3ccccc3Cl)cn2)cc2cnc(N[C@H]3CC[C@H](N)CC3)nc12.O=CO [25; Formic Acid] | ≤ 5 nM | D (D: >75% to ≤100%) | D (D: >75% to ≤100%) | D (D: >75% to ≤100%) | ≤ 5 nM | – | D (D: >75% to ≤100%)
CCc1cc(-c2ccc(NS(=O)(=O)c3ccccc3Cl)cn2)cc2cnc(N[C@H]3CC[C@H](N)CC3)nc12.O=CO [28; Formic Acid] | ≤ 5 nM | D (D: >75% to ≤100%) | C (C: >50% to ≤75%) | B (B: >25% to ≤50%) | ≤ 5 nM | – | D (D: >75% to ≤100%)
CCc1cc(-c2ccc(NS(=O)(=O)c3ccccc3Cl)cc2F)cc2cnc(N[C@H]3CC[C@H](N)CC3)nc12.O=CO [35; Formic Acid] | ≤ 5 nM | D (D: >75% to ≤100%) | C (C: >50% to ≤75%) | B (B: >25% to ≤50%) | ≤ 5 nM | – | D (D: >75% to ≤100%)
CCc1cc(-c2cc(F)c(NS(=O)(=O)c3ccccc3Cl)cc2C)cc2cnc(N[C@H]3CC[C@H](N)CC3)nc12.O=CO [21; Formic Acid] | 5 to 50 nM | D (D: >75% to ≤100%) | D (D: >75% to ≤100%) | B (B: >25% to ≤50%) | ≤ 5 nM | – | D (D: >75% to ≤100%)
CCc1cc(-c2cc(NS(=O)(=O)c3ccccc3Cl)n[nH]2)cc2cnc(N[C@H]3CC[C@H](N)CC3)nc12.O=CO [29; Formic Acid] | > 100 nM | D (D: >75% to ≤100%) | D (D: >75% to ≤100%) | D (D: >75% to ≤100%) | ≤ 5 nM | – | D (D: >75% to ≤100%)
CCc1cc(-c2ccc(NS(=O)(=O)c3ccccc3Cl)nn2)cc2cnc(N[C@H]3CC[C@H](N)CC3)nc12.O=CO [32; Formic Acid] | ≤ 5 nM | D (D: >75% to ≤100%) | C (C: >50% to ≤75%) | B (B: >25% to ≤50%) | ≤ 5 nM | – | D (D: >75% to ≤100%)
CCc1cc(-c2ccc(NS(=O)(=O)c3ccccc3Cl)cc2)cc2cnc(N[C@H]3CC[C@H](N)CC3)nc12.O=CO [18; Formic Acid] | ≤ 5 nM | D (D: >75% to ≤100%) | C (C: >50% to ≤75%) | A (A: ≤25%) | ≤ 5 nM | – | D (D: >75% to ≤100%)
CCc1cc(-c2ccc(NS(=O)(=O)c3ccccc3Cl)c(F)c2)cc2cnc(N[C@H]3CC[C@H](N)CC3)nc12.O=CO [24; Formic Acid] | ≤ 5 nM | D (D: >75% to ≤100%) | C (C: >50% to ≤75%) | C (C: >50% to ≤75%) | ≤ 5 nM | 1000 to 10000 nM | D (D: >75% to ≤100%)
